Experiments:
[1] = tested on: FeCl3 Model of Thrombosis in Rats; assay: Rat model of FeCl3-induced platelet-dependent arterial thrombosis; format: in vivo; settings: for Incidence of Occlusion: occluded/total animals
Excerpt: Kurz, K. D., Main, B. W., and Sandusky, G. E., Thromb. Res., 60:269-280 (1990). In this model a platelet-rich, occlusive thrombus is formed in a segment of the rat carotid artery treated with a fresh solution of FeCl3 absorbed to a piece of filter paper. The FeCl3 is thought to diffuse into the treated segment of artery and causes de-endothelialization resulting in thrombus formation. The effect of a test compound on the incidence of occlusive thrombus formation following the application of the FeCl3 is monitored by ultrasonic flowtometry and is used as the primary end point. The use of flowtometry is a modification of the original procedure in which thermal detection of clot formation was employed. Kurz, K. D., Main, B. W., and Sandusky, G. E., Thromb. Res., 60:269-280 (1990).
Male Harlan Sprague Sawley rats (420-450 g) were acclimated at least 72 hours prior to use and fasted for 12 hours prior to surgery with free access to water. The animals were prepared, anesthetized with Nembutal with catheters for blood pressure monitoring, drug and anesthesia delivery being implanted as described above. The left carotid artery was exposed and isolated by making a midline cervical incision followed by blunt dissection and spreading techniques to separate a 2 cm segment of the vessel from the carotid sheath. A silk suture is inserted under the proximal and distal ends of the isolated vessel to provide clearance for the placement of a ultrasonic flow probe (Transonic) around the proximal end of the vessel. The probe is then secured with a stationary arm.
The test compounds were administered as described above after placement of the flow probe and stabilization of the preparation for a period of 60 minutes prior to the thrombogenic stimulus. At t=0, a 3 mm diameter piece of filter paper (Whatman #3) soaked with 10 μL of a 35% solution of fresh FeCl3 (in water) was applied the segment of isolated carotid artery distal to the flow probe. Blood pressure, blood flow, heart rate, and respiration were monitored for 60 minutes.
The incidence of occlusion (defined as the attainment of zero blood flow) was recorded as the primary end point. Following the 60 minute observation period the flow probe was removed and the area cleared of all excess fluid. The distal and proximal sutures were tied off and arterial clamps placed on the far proximal and distal ends of the segment. The isolated segment was cut out, blotted dry on filter paper and weighed. The segment was re-weighed following removal of the clot and the difference recorded as total % clot (see above). Weights were recorded on only those segments which had detectable thrombus. Following the procedure the animals were euthanized as described above.

Rat Venous Stasis Model = assay: Venous stasis in rats (thromboplastin plus stasis, inferior vena cava); format: in vivo; settings: for % Clot: mean ± S.E.M.
Protocol: This is one of the most commonly used models in the evaluation of antithrombotic compounds. Hladovec, J. Thromb. […] Talbot, M. D., et. al., Thromb.
Male Harlan Sprague Dawley rats (420-450 g) were acclimated at least 72 hours prior to use. The animals were fasted for 12 hours prior to surgery with free access to water. The animals were anesthetized with a sodium pentobarbital (Nembutal) given intraperitoneally at a dose of 50 mg/kg body weight and placed on a isothermal pad to maintain body temperature. The level of anesthesia was monitored every 15 minutes by: neuro-response to a tail pinch, respiration and body core temperature. The desired depth of surgical anesthesia was maintained by administering subsequent doses (5 mg/kg) intravenously. The left femoral artery was catheterized with polyethylene tubing (PE50) using standard procedures for blood pressure monitoring and blood sampling. The left and right femoral veins were catheterized with PE50 tubing for delivery of anesthetic and test compounds respectively.
Blood pressure, heart rate, core temperature and respiration were monitored continuously.
The abdomen of the animals is opened by making a vertical midline incision followed by isolation of the IVC using dissection. The segment extends from below the renal to above the iliac vessels (about 2 cm in length). The peripheral blood vessels are tied off and a ligature is loosely placed at the distal and proximal ends of the isolated segment. Rabbit brain thromboplastin (RBT) (Sigma Chemical Co., St. Louis MO) is prepared by resuspending the contents of the vial with 2 mL of sterile saline pre-warmed to 37° C. At the end of the 30 minute infusion period, RBT is systemically administered as a bolus injection (1.5 mL/kg) via the femoral catheter. Stasis is induced within the isolated IVC segment by securing the proximal and distal ligature 10 sec following the administration of the RBT. Following a 30 minute period of stasis the tied off IVC segment is removed and the contents weighed. Clot formation was defined as %clot: [Weight of the isolated clot/(Weight of the intact segment-the weight of the empty segment)]×100. This method was used to correct for slight differences in segment size and fluid content.
Following termination of the experiment the animal was euthanized with a 120 mg/kg dose of Nembutal.

α-thrombin = α-thrombin (Homo sapiens, UniProt P00734); assay: Thrombin-induced clotting of purified fibrinogen; format: biochemical; settings: preincubation with α-thrombin up to 60 minutes before fibrinogen
Protocol: Inhibition is reflected as an increase in the relative clotting time which is the ratio of the […]. The control clotting time in this assay is 16.2±0.78 sec.
The clotting time of fibrinogen following the addition of the thrombin/inhibitor complex was measured optically using the Coag-A-Mate XC automated coagulometer (General Diagnostics, Organon Technica, Oklahoma City, OK). […] Haemostas., 69:130-134 (1993).

washed human platelets = assay: Thrombin-induced aggregation in washed human platelets; format: cell-based
Protocol: Washed human platelets were prepared from freshly isolated venous blood obtained from normal, healthy volunteers who had not taken any medication which might affect platelet function, according to the procedure of Connolly, T. M. et al., J. Biol. Chem., 267:6893 (1992). Inhibitors, were added in a volume of 20 μL to 350 μL of prewarmed washed platelets in a siliconized glass cuvette (Chronolog Corp., Havertown, PA) followed by 10 μL of 0.25 M CaCl2. The rate and extent of aggregation were measured for 5-15 minutes by the change in light transmission in a stirred cuvette, following the addition of 20 μL of […] (final concentration 2 nM), using a Chronolog Whole Blood Aggregometer equipped with the Aggro/Link data acquisition system (Chronolog Corp., Hayertown, PA). The extent of inhibition was determined by measuring the change in the amplitude (extent) of the aggregation response compared to the control (uninhibited) response over the 1 minute period following the addition of thrombin.

thrombin = thrombin (Homo sapiens, UniProt P00734); settings: literature values; read-out: Ki (thrombin), reported; cited from earlier work
[2] = 0.1 mg/kg i.v. bolus + 40 μg/kg/min i.v. infusion

(D--Phe)--Pro--Arg--Pro--(Gly4 --Asn--Gly--Asp--Phe--Glu--Glu--IIe--Pro--Glu--Glu--Tyr--Leu--OH [Compound 25]
% Clot ([1]; 0.1 mg/kg i.v. bolus + 5 μg/kg/min i.v. infusion, mean ± S.E.M., segments with detectable thrombus): 70.1 ± 5.5%
Incidence of Occlusion ([1]; 0.1 mg/kg i.v. bolus + 5 μg/kg/min i.v. infusion): 3/3
% Clot ([1]; 0.1 mg/kg i.v. bolus + 10 μg/kg/min i.v. infusion, mean ± S.E.M., segments with detectable thrombus): 59.42 ± 4.34%
Incidence of Occlusion ([1]; 0.1 mg/kg i.v. bolus + 10 μg/kg/min i.v. infusion): 5/6
% Clot ([1]; 0.1 mg/kg i.v. bolus + 20 μg/kg/min i.v. infusion, mean ± S.E.M., segments with detectable thrombus): 45.3 ± 11.63%
Incidence of Occlusion ([1]; 0.1 mg/kg i.v. bolus + 20 μg/kg/min i.v. infusion): 5/6
% Clot [1, 2]: 0%
Incidence of Occlusion [1, 2]: 0/6
% Clot (Rat Venous Stasis Model; [2]): 25.75 ± 3.71%
% Clot (Rat Venous Stasis Model; 0.1 mg/kg i.v. bolus + 60 μg/kg/min i.v. infusion): 26.50 ± 3.59%
% Clot (Rat Venous Stasis Model; 0.1 mg/kg i.v. bolus + 80 μg/kg/min i.v. infusion): 25.75 ± 0.41%
effect on venous thrombus formation induced by stasis and thromboplastin (Rat Venous Stasis Model; summary in words): did not have any effect of thrombus formation
proteolytic inactivation by thrombin upon prolonged incubation (α-thrombin): sensitive to proteolytic degradation with re-emergence of thrombin activity
persistence of inhibition of aggregation over the 15 minute course of the assay (washed human platelets; 20nM (compound 8), same or higher concentrations (Hirulog-1), FIG. 4): did not cause sustained inhibition of the aggregation response
IC50 (washed human platelets; α-thrombin 2 nM, extent of aggregation over 1 minute after thrombin, mean ± standard deviation, three determinations): 16 ± 3 nM
Ki (thrombin): 2.56 nM
